Test [1] has as its target T1, hNaV1.2 (SCN2A) (Homo sapiens, UniProt Q99250).
T1 construct: expressed in transfected cells
Nature of the test: Use-dependent inhibition of the CNS Nav1.2 sodium channel. The note with it: use-dependent block, 25 Hz, pulse 20, read-out: Nav1.2 UDB 25 Hz 10 uM. It is filed as cell-based. The gist of the method: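 Use-dependent block of human Nav1.2 was measured by automated whole-cell patch clamp (QPatch) in HEK-293 cells stably expressing hNaV1.2 with SCN1B and SCN2B. From a holding potential of −120 mV, a train of 20 pulses to 0 mV (20 ms, 25 Hz) was applied. Peak current at pulse 20 was normalized to the first pulse, and percent inhibition was calculated relative to compound-free recordings.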

In test [2] the target is wild-type human cardiac sodium channel, hNav1.5 (Homo sapiens, UniProt Q14524). Nature of the test: Late INa screening assay (QPatch whole cell patch clamp, Tefluthrin-induced late current). It is filed as cell-based. The note with it: HEK293 hNav1.5, percent block of late INa. In short, it runs like this: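 HEK293 cells stably expressing hNav1.5 without beta subunits were whole-cell patch clamped at 23-25 °C, stepping from −120 to −20 mV for 250 ms at 0.1 Hz. Late current (240–265 ms) was induced with 10 μM Tefluthrin, and compounds were added typically at 0.3 or 1 μM. Percent block was taken against 0 Na baseline with rundown correction.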
Chain of wild-type human cardiac sodium channel, hNav1.5 (Q14524 whole entry): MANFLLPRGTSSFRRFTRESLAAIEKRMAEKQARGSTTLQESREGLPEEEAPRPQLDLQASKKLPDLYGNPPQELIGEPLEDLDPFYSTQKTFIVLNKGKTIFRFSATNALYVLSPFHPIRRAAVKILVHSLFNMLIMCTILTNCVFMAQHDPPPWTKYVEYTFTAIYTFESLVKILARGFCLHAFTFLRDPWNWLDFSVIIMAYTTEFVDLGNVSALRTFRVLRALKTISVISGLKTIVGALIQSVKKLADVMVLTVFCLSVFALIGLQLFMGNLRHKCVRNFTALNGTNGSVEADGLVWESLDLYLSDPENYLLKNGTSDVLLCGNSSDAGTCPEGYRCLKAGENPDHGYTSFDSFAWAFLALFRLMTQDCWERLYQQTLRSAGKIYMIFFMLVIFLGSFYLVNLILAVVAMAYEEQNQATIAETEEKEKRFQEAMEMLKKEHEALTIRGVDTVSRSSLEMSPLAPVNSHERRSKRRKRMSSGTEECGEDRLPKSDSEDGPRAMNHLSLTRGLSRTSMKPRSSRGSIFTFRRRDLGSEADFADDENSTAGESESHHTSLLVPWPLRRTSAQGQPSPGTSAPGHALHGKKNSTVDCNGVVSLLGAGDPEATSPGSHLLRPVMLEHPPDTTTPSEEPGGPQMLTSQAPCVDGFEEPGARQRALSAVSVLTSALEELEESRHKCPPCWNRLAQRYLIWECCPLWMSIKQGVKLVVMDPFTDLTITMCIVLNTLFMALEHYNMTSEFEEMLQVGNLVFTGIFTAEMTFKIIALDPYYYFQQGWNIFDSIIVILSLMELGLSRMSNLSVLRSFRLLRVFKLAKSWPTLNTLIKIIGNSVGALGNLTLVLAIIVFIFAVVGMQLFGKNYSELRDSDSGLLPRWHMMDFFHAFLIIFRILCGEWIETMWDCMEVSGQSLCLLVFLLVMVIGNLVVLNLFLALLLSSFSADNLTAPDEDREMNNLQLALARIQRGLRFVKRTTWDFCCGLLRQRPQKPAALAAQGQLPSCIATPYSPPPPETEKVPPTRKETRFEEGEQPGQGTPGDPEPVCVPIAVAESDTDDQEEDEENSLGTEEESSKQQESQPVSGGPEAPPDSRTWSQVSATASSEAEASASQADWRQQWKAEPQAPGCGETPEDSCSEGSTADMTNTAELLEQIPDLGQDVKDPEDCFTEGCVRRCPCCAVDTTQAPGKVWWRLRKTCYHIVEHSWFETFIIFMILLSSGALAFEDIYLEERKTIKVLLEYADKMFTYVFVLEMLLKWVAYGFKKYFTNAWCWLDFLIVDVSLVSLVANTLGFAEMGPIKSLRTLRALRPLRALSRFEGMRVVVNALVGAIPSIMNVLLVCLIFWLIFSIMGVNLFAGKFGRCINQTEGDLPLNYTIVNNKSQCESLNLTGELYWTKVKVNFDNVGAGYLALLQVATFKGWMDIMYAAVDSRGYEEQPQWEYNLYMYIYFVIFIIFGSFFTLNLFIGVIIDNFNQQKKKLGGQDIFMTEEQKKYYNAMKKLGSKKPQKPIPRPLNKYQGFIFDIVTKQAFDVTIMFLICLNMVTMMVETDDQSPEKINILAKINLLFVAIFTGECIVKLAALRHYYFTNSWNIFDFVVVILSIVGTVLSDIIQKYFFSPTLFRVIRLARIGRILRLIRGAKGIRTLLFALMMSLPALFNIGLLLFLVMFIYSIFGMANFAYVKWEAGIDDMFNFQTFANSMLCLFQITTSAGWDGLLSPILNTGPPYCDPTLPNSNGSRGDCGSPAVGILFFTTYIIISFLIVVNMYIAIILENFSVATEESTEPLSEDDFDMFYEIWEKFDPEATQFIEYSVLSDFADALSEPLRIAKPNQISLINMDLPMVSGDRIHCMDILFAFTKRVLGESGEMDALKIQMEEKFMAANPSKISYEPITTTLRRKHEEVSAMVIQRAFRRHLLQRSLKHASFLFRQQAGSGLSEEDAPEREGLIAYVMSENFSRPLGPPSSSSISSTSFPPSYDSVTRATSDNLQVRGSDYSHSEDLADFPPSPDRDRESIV
(Patch clamp records ionic current or voltage across a cell membrane.)

T1 sequence (Q99250 whole entry): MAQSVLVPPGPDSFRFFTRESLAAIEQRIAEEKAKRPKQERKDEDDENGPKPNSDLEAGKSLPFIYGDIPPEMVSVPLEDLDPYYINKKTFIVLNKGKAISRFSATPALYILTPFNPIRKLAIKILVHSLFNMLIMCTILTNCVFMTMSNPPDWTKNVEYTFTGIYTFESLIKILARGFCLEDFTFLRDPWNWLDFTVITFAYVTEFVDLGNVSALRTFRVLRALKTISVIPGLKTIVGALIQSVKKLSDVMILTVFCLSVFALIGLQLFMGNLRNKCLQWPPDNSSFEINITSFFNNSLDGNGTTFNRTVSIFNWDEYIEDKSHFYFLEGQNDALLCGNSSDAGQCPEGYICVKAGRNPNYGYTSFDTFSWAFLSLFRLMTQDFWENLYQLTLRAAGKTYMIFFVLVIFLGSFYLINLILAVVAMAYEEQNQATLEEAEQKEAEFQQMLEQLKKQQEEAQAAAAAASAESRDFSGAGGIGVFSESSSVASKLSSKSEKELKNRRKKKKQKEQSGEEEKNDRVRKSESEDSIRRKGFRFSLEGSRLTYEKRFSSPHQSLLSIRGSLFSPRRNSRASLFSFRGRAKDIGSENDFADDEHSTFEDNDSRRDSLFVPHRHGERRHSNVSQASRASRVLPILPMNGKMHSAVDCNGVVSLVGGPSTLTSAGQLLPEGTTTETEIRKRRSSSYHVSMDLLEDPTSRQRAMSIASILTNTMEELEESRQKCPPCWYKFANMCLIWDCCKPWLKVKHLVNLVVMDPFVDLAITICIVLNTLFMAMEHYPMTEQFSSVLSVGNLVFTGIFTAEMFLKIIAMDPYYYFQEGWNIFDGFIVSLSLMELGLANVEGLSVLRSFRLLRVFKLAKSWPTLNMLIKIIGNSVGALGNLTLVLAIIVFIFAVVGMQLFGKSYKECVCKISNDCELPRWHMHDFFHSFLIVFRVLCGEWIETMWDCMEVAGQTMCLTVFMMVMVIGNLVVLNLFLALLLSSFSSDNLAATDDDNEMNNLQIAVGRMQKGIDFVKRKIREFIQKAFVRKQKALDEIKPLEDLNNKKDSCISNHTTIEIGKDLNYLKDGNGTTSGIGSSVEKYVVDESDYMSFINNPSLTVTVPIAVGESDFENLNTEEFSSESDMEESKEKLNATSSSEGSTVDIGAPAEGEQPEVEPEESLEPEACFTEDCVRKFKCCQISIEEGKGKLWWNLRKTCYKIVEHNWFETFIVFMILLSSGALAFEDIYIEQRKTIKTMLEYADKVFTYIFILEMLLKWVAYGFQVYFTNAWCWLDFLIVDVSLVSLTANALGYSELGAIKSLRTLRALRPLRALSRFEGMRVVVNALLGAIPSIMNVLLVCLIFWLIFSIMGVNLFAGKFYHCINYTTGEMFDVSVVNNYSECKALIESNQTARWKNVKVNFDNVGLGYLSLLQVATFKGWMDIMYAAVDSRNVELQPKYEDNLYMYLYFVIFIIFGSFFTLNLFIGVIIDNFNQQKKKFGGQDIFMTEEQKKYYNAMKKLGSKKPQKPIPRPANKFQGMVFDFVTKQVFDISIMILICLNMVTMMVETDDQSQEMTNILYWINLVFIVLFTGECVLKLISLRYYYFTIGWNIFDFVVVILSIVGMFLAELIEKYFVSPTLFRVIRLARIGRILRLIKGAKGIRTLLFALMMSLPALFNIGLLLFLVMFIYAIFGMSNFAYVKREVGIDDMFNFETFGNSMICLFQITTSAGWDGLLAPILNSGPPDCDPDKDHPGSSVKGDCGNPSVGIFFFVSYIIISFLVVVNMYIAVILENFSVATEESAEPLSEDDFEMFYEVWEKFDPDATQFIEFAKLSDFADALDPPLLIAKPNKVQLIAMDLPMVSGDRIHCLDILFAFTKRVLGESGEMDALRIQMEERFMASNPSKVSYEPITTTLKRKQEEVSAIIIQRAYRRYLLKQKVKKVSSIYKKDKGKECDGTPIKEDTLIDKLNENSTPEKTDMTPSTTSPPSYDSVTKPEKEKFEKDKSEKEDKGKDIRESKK
T1 sequence (Q07699 19-218 partner): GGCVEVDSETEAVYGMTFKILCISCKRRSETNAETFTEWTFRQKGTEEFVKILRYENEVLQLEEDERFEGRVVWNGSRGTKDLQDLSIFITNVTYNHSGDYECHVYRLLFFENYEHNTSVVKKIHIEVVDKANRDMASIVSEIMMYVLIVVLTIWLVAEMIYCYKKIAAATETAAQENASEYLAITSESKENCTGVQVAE
T1 sequence (O60939 30-215 partner): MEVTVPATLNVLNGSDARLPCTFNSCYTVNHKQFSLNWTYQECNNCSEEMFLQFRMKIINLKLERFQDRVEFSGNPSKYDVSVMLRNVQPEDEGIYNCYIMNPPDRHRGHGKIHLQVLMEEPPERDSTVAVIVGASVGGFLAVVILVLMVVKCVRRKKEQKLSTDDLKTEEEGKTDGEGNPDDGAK

As for `FC(F)(F)Oc1ccc(-c2ccc3onc(-n4cnc(Cl)c4)c3c2)cc1` [Example 140, 3-(4-chloro-1H-imidazol-1-yl)-5-(4-(trifluoromethoxy)phenyl)benzo[d]isoxazole], the inhibition at 10 µM in test [1] is less than 5%. This molecule also displayed an inhibition at 1 µM in test [2] of 37.6%.
On the same counts, the results for `Cc1ncn(-c2noc3ccc(-c4ccc(OC(F)(F)F)cc4)cc23)n1` [Example 141, 3-(3-methyl-1H-1,2,4-triazol-1-yl)-5-(4-(trifluoromethoxy)phenyl)benzo[d]isoxazole] are 19.9% and 38.6%.
With `FC(F)(F)Oc1ccc(-c2ccc3onc(-n4cnc(-c5ccccc5)c4)c3c2)cc1` [Example 142, 3-(4-phenyl-1H-imidazol-1-yl)-5-(4-(trifluoromethoxy)phenyl)benzo[d]isoxazole], the inhibition at 10 µM in test [1] was 65%. Further, the inhibition at 1 µM in test [2] is 44%.
As to `CC(C)(C)c1cn(-c2noc3ccc(-c4ccc(OC(F)(F)F)cc4)cc23)cn1` [Example 143, 3-(4-(tert-butyl)-1H-imidazol-1-yl)-5-(4-(trifluoromethoxy)phenyl)benzo[d]isoxazole], the inhibition at 10 µM in test [1] amounted to 57.1%. For the same molecule, in test [2], the inhibition at 0.3 µM came to 35.9% and the inhibition at 1 µM amounted to 60.3%.
On to `CC(C)c1nccn1-c1noc2ccc(-c3ccc(OC(F)(F)F)cc3)cc12` [Example 144, 3-(2-isopropyl-1H-imidazol-1-yl)-5-(4-(trifluoromethoxy)phenyl)benzo[d]isoxazole], for which the inhibition at 10 µM in test [1] came out at 75.8%. Besides, in test [2], the inhibition at 0.3 µM is 25.9% and the inhibition at 1 µM stood at 55.7%.
For the molecule `FC(F)(F)Oc1ccc(-c2ccc3onc(-n4cnc(C(F)(F)F)c4)c3c2)cc1` [Example 145, 5-(4-(trifluoromethoxy)phenyl)-3-(4-(trifluoromethyl)-1H-imidazol-1-yl)benzo[d]isoxazole], the inhibition at 10 µM in test [1] turned out to be 75.8%. Further, in test [2], the inhibition at 0.3 µM was determined as 61.7% and the inhibition at 1 µM was 84.9%.
In the case of `OCc1cn(-c2noc3ccc(-c4ccc(OC(F)(F)F)cc4)cc23)cn1` [Example 146, (1-(5-(4-(trifluoromethoxy)phenyl)benzo[d]isoxazol-3-yl)-1H-imidazol-4-yl)methanol], in test [1], the inhibition at 10 µM was 75.8%. The same molecule had an inhibition at 1 µM in test [2] of 48.4%.
On to `Nc1noc2ccc(-c3ccc(OC(F)(F)F)cc3)cc12` [Example 147, 5-(4-(trifluoromethoxy)phenyl)benzo[d]isoxazol-3-amine], for which, in test [1], the inhibition at 10 µM turned out to be 20.4%. The inhibition at 1 µM in test [2] was found to be 45.4%.
Take `COc1ccnc(CNc2noc3ccc(-c4ccc(OC(F)(F)F)cc4)cc23)n1` [Example 149, N-((4-methoxypyrimidin-2-yl)methyl)-5-(4-(trifluoromethoxy)phenyl)benzo[d]isoxazol-3-amine]: in test [1], the inhibition at 10 µM came to 44.4%. In test [2], this molecule showed an inhibition at 0.3 µM of 50.9% and an inhibition at 1 µM of 87.6%.
For `CCN(CC)C(=O)COc1noc2ccc(-c3ccc(OC(F)(F)F)cc3)cc12` [Example 150, N,N-diethyl-2-((5-(4-(trifluoromethoxy)phenyl)benzo[d]isoxazol-3-yl)oxy)acetamide], in that order: 51%, 49.4% and 68.2%.
As to `FC(F)(F)Oc1ccc(-c2ccc3onc(OCc4cnccn4)c3c2)cc1` [Example 151, 3-(pyrazin-2-ylmethoxy)-5-(4-(trifluoromethoxy)phenyl)benzo[d]isoxazole], the inhibition at 10 µM in test [1] was found to be 18.6%. For the same molecule, in test [2], the inhibition at 0.3 µM was 50.7% and the inhibition at 1 µM was found to be 70.1%.
For `Cc1nccnc1COc1noc2ccc(-c3ccc(OC(F)(F)F)cc3)cc12` [Example 152, 3-((3-methylpyrazin-2-yl)methoxy)-5-(4-(trifluoromethoxy)phenyl)benzo[d]isoxazole], in that order: 13.8%, 19.8% and 53.4%.
For `Cc1nnc(C(C)Oc2noc3ccc(-c4ccc(OC(F)(F)F)cc4)cc23)o1` (centres unmarked) [Example 153, 3-(1-(5-methyl-1,3,4-oxadiazol-2-yl)ethoxy)-5-(4-(trifluoromethoxy)phenyl)benzo[d]isoxazole], in that order: 53.7%, 51.3% and 67.6%.
For the molecule `FC(F)(F)Oc1ccc(-c2ccc3onc(OCc4nnc(C5CC5)s4)c3c2)cc1` [Example 154, 3-((5-cyclopropyl-1,3,4-thiadiazol-2-yl)methoxy)-5-(4-(trifluoromethoxy)phenyl)benzo[d]isoxazole], the inhibition at 10 µM in test [1] worked out at 27%. The molecule further gave an inhibition at 1 µM in test [2] of 39.2%.
For `Cc1nnc(COc2noc3c(F)cc(-c4ccc(OC(F)(F)F)cc4)cc23)o1` [Example 155, 7-fluoro-3-((5-methyl-1,3,4-oxadiazol-2-yl)methoxy)-5-(4-(trifluoromethoxy)phenyl)benzo[d]isoxazole], in test [1], the inhibition at 10 µM stood at 58.6%. Besides, in test [2], the inhibition at 0.3 µM turned out to be 47% and the inhibition at 1 µM is 69.2%.
As to `FC(F)(F)Oc1ccc(-c2ccc3onc(NCc4ncco4)c3c2)cc1` [Example 156, N-(oxazol-2-ylmethyl)-5-(4-(trifluoromethoxy)phenyl)benzo[d]isoxazol-3-amine], in test [1], the inhibition at 10 µM amounted to 10.6%. In test [2], the inhibition at 0.3 µM amounted to 37.9% and the inhibition at 1 µM was determined as 62.8%.
Consider `CC(C)(C)OC(=O)COc1noc2ccc(-c3ccc(OC(F)(F)F)cc3)cc12` [Example 157, tert-butyl 2-((5-(4-(trifluoromethoxy)phenyl)benzo[d]isoxazol-3-yl)oxy)acetate], for which the inhibition at 10 µM in test [1] is less than 5%. In addition, the inhibition at 1 µM in test [2] was 36.9%.

Values taken from patent publication US9416115B2, “Fused heterocyclic compounds as ion channel modulators” (Gilead Sciences, Inc., priority 2013, dated 2016).
